# Like-named read-outs stand apart in the source and are kept apart here.
# What was measured:
# HCV NS3/4A protease [1] = biological target: T1, HCV NS3/4A protease (Hepatitis C virus genotype 1a, UniProt P27958); test: Inhibition of HCV NS3/4A protease by ketoamide inhibitors; assay type: biochemical; conditions: P2 = DMCP versus P2 = Leu
# HCV NS3/4A protease [2] = biological target: T1, HCV NS3/4A protease; conditions: experimental over predicted relative Ki*
# T1 sequence (P27958 1658-1711): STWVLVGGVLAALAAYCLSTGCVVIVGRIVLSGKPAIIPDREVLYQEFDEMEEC
# T1 sequence (P27958 1027-1208): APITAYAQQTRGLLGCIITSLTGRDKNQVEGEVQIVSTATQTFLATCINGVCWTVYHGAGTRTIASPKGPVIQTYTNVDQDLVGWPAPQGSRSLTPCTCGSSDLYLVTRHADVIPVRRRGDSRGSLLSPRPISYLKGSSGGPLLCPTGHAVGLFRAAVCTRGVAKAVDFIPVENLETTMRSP
compound,measurement,setting,value
"CC(C)(C)NC(=O)N[C@H](C(=O)N1C[C@H]2[C@@H]([C@H]1C(=O)NC(CC1CCC1)C(=O)C(N)=O)C2(C)C)C(C)(C)C (stereo partly drawn) [Compd 9, ^tBu–urea–t-Bug–DMCP–c-Bua–CONH2]",increase in potency relative to Leu,HCV NS3/4A protease [1],70 fold
same,Ki* ratio exp./SA,HCV NS3/4A protease [2]; P2 series,4.1
same,Ki* ratio exp./SA,HCV NS3/4A protease [2]; P3 series,9.0

# — article PMC2394794 (Journal of Synchrotron Radiation, 2008)
